Measurements reported in PubChem BioAssay (NCI).
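Method: 48-hour compound exposure of cells in 96-well plates, five concentrations, linear interpolation of endpoints. GI50 = concentration required for 50% inhibition of growth. TGI marks complete inhibition of growth.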

Columns and labels:
Assay in all cases: NCI anticancer screen, dose series, 48 h
A498 renal = test system: A498 renal
A549 NSCLC = test system: A549 NSCLC
ACHN renal = test system: ACHN renal
BT-549 breast = test system: BT-549 breast
CCRF-CEM leukemia = test system: CCRF-CEM leukemia
COLO 205 colon = test system: COLO 205 colon
DU-145 prostate = test system: DU-145 prostate
EKVX NSCLC = test system: EKVX NSCLC
HCC-2998 colon = test system: HCC-2998 colon
HCT-116 colon = test system: HCT-116 colon
HCT-15 colon = test system: HCT-15 colon
HL-60(TB) leukemia = test system: HL-60(TB) leukemia
HOP-62 NSCLC = test system: HOP-62 NSCLC
HOP-92 NSCLC = test system: HOP-92 NSCLC
HT29 colon = test system: HT29 colon
IGROV1 ovarian = test system: IGROV1 ovarian
KM12 colon = test system: KM12 colon
M14 melanoma = test system: M14 melanoma
MALME-3M melanoma = test system: MALME-3M melanoma
MCF7 breast = test system: MCF7 breast
MDA-MB-231 breast = test system: MDA-MB-231 breast
MOLT-4 leukemia = test system: MOLT-4 leukemia
NCI-H226 lung = test system: NCI-H226 lung
NCI-H460 lung = test system: NCI-H460 lung
NCI-H522 lung = test system: NCI-H522 lung
NCI/ADR-RES ovarian = test system: NCI/ADR-RES ovarian
OVCAR-3 ovarian = test system: OVCAR-3 ovarian
OVCAR-4 ovarian = test system: OVCAR-4 ovarian
OVCAR-5 ovarian = test system: OVCAR-5 ovarian
OVCAR-8 ovarian = test system: OVCAR-8 ovarian
PC-3 prostate = test system: PC-3 prostate
RPMI-8226 leukemia = test system: RPMI-8226 leukemia
RXF 393 renal = test system: RXF 393 renal
SF-268 CNS = test system: SF-268 CNS
SF-539 CNS = test system: SF-539 CNS
SK-MEL-2 melanoma = test system: SK-MEL-2 melanoma
SK-MEL-28 melanoma = test system: SK-MEL-28 melanoma
SK-OV-3 ovarian = test system: SK-OV-3 ovarian
SN12C renal = test system: SN12C renal
SNB-19 CNS = test system: SNB-19 CNS
SR leukemia = test system: SR leukemia
SW-620 colon = test system: SW-620 colon
T-47D breast = test system: T-47D breast
TK-10 renal = test system: TK-10 renal
UACC-257 melanoma = test system: UACC-257 melanoma
UACC-62 melanoma = test system: UACC-62 melanoma
UO-31 renal = test system: UO-31 renal

## Cc1cc(O)c(=O)cc2c1C[C@H]1CC(C)(C)/C=C/C[C@]3(C)Oc4cc(=O)c(O)cc(C)c4C[C@H]3C[C@H](O)[C@@]1(C)O2
A498 renal
  GI50: 25.9 nM
  TGI: 80.9 nM
A549 NSCLC
  GI50: 6.97 nM
  TGI: > 16700 nM
ACHN renal
  GI50: 6.01 nM
  TGI: 50.4 nM
BT-549 breast
  GI50: 12.5 nM
  TGI: > 16700 nM
CCRF-CEM leukemia
  GI50: 10.1 nM
  TGI: > 16700 nM
COLO 205 colon
  GI50: 5.71 nM
  TGI: 25.8 nM
DU-145 prostate
  GI50: 5.61 nM
  TGI: > 16700 nM
EKVX NSCLC
  GI50: 11 nM
HCC-2998 colon
  GI50: 20.3 nM
  TGI: > 16700 nM
HCT-116 colon
  GI50: < 1.67 nM
  TGI: > 16700 nM
HCT-15 colon
  GI50: 2.81 nM
  TGI: > 16700 nM
HL-60(TB) leukemia
  GI50: 20.2 nM
  TGI: 128 nM
HOP-62 NSCLC
  GI50: 5.72 nM
  TGI: 40.1 nM
HOP-92 NSCLC
  GI50: 5.54 nM
  TGI: 112 nM
HT29 colon
  GI50: 3.1 nM
  TGI: > 16700 nM
IGROV1 ovarian
  GI50: 16.3 nM
  TGI: > 16700 nM
KM12 colon
  GI50: 7.17 nM
  TGI: > 16700 nM
M14 melanoma
  GI50: 11.7 nM
  TGI: 140 nM
MALME-3M melanoma
  GI50: 6.36 nM
  TGI: 32 nM
MCF7 breast
  GI50: 3.81 nM
  TGI: > 16700 nM
MDA-MB-231 breast
  GI50: 19.9 nM
  TGI: > 16700 nM
MOLT-4 leukemia
  GI50: 7.93 nM
  TGI: > 16700 nM
NCI-H226 lung
  GI50: 24 nM
NCI-H460 lung
  GI50: < 1.67 nM
  TGI: 17.3 nM
NCI-H522 lung
  GI50: 7.68 nM
  TGI: 51.7 nM
NCI/ADR-RES ovarian
  GI50: 8.45 nM
OVCAR-3 ovarian
  GI50: 12 nM
  TGI: > 16700 nM
OVCAR-4 ovarian
  GI50: 12 nM
  TGI: > 16700 nM
OVCAR-5 ovarian
  GI50: 13.6 nM
  TGI: > 16700 nM
OVCAR-8 ovarian
  GI50: 6.1 nM
  TGI: > 16700 nM
PC-3 prostate
  GI50: 5.38 nM
  TGI: > 16700 nM
RPMI-8226 leukemia
  GI50: 8.31 nM
  TGI: > 16700 nM
RXF 393 renal
  GI50: 10.5 nM
  TGI: 142 nM
SF-268 CNS
  GI50: 7.71 nM
  TGI: > 16700 nM
SF-539 CNS
  GI50: 10.4 nM
  TGI: 71.4 nM
SK-MEL-2 melanoma
  GI50: 8.83 nM
  TGI: 496 nM
SK-MEL-28 melanoma
  GI50: 15.6 nM
  TGI: > 16700 nM
SK-OV-3 ovarian
  GI50: 10.1 nM
  TGI: 95.2 nM
SN12C renal
  GI50: 5.11 nM
  TGI: > 4910 nM
SNB-19 CNS
  GI50: < 1.67 nM
  TGI: > 16700 nM
SR leukemia
  GI50: 14.9 nM
  TGI: > 16700 nM
SW-620 colon
  GI50: 2.91 nM
  TGI: > 16700 nM
T-47D breast
  GI50: 2.52 nM
  TGI: 16.3 nM
TK-10 renal
  GI50: 8.98 nM
UACC-257 melanoma
  GI50: 13.5 nM
  TGI: 84.1 nM
UACC-62 melanoma
  GI50: 27.2 nM
  TGI: 85.4 nM
UO-31 renal
  GI50: 7.73 nM
  TGI: 53.2 nM
